Earlier results as cited in US20210228483A1, “LOW GLYCEMIC GUMMY COMPOSITION AND METHODS OF MAKING AND USING THEREOF” (Seattle Gummy Company, priority 2018, published 2021).

Legend:
[1] = in vivo
[2] = test system: blood glucose levels; conditions: as shown in FIG. 3 (trehalose) and FIG. 4 (isomaltulose)

In the case of OC[C@H]1O[C@H](OC[C@H]2OC(O)(CO)[C@@H](O)[C@@H]2O)[C@H](O)[C@@H](O)[C@@H]1O (stereo partly shown) [isomaltulose], the “GI value (glycemic index)” value [1] is listed as “about 30” and the “spike in glucose levels” value [2] is listed as “does not cause a spike in glucose levels”.
In the case of OC[C@H]1O[C@@](CO)(O[C@H]2O[C@H](CO)[C@@H](O)[C@H](O)[C@H]2O)[C@@H](O)[C@@H]1O [sucrose, reference compound], the “GI value (glycemic index)” value [1] is given as 63.
In the case of OC[C@H]1O[C@H](O[C@H]2O[C@H](CO)[C@@H](O)[C@H](O)[C@H]2O)[C@H](O)[C@@H](O)[C@@H]1O [trehalose], the “spike in glucose levels” value [2] is listed as “does not cause a spike in glucose levels”.
